Laboratory results from patent US20240389585A1, “METHOD FOR PROMOTING PLANT GROWTH” (priority 2021, published 2024).

Experiments:
Complex soil microbiome = assay: Crystal violet biofilm biomass, MeJA chemical analogs; assay type: cell-based; conditions: 20 hrs
Procedure: Complex soil microbiome was treated with various MeJA chemical analogs over 20 hrs and stained with CV. The full chemical name of the chemical analogs are as follows: DHJ: Dihydro jasmonic acid; MDHJ: Methyl dihydro jasmonate; MJ: Methyl jasmonate; MO: Methyl octanoate.
This method was used to get a proxy for biofilm biomass. Briefly, planktonic cells were discarded. 50 μL of 0.1% CV solution was added to the well very gently. The biofilm was stained for 10 minutes. The dye was removed gently. 100 μL of PBS was added to the well to wash off the excess CV. PBS was removed, and the wells were left to dry overnight. The next day, 200 ul of 1% SDS was added to each well and was resuspended vigorously with a pipette. After 20 minutes, 20 ul from the top suspension was removed and added to a new 96-well plate. The well was diluted with 180 ul of water and absorbance was checked at 595 nm on a spectrophotometer.
To identify the potential functional group of MeJA for its biofilm-inducing property, several jasmonic acid analogues were screened for their biofilm-inducing capability in the soil microbiome. The analogues were used to study biofilm induction in both complex soil microbiomes (FIG. 8).

soil microbiota [1] = assay: Live confocal imaging of soil microbiota biofilm formation (SYTO9 nucleic acid stain, 3D biovolume); assay type: cell-based
Procedure: (§1) 5 g of JIFFY soil substrate was resuspended in 20 ml of PBS. This suspension was vortexed for 4 minutes and sonicated for 1 minute. It was then filtered through a strainer. The slurry that didn't pass through the strainer was again resuspended in 20 ml of PBS medium and subsequent steps were repeated twice. The filtrate was then centrifuged at 150G for 2 minutes to settle large soil particles and the supernatant was decanted into another tube. This supernatant was then centrifuged at 5500G for 5 minutes to obtain a bacterial pellet. This pellet was resuspended in 20 ml of soil extract medium. This suspension was referred to as “soil microbiota inoculum”. The final concentration in all inocula was around 1×10^8 bacteria per ml as quantified by Baclight bacterial counting kit (flow cytometry) or manual counting with a hemocytometer.
(§2) For the confocal imaging experiments, soil inoculum was enriched in soil extract media overnight at 37° C.
(§3) Soil microbiota inoculum was prepared as described in the section above. MeJA was added to the microbiota to achieve the desired concentration (0, 1, 5, 25 nM for nucleic acid imaging experiment, and 0 and 5 nM for matrix imaging experiment). […] 50 µL of SYTO™9 (Thermo cat. no. S34854) solution (final concentration of 5 μM) was also added to all the wells. For matrix imaging, FilmTracer™ SYPRO™ Ruby Biofilm Matrix Stain (Thermo, cat. no. F10318) was added instead (ready to use, 1×concentration). For live imaging, Zeiss LSM 900 with Airyscan (Definite Focus 2) was used and images were acquired every 30 minutes for 24 hours with 65×oil objective at the NUS Centre for Bioimaging Science (CBIS). For both the dyes (separate experiments), a 488 nm laser was used.
(§4) Image analysis was performed using BiofilmQ software ([…]). Images were aligned along the Z-axis and along time. 2-class Otsu thresholding was used to detect the signal against the background. Sensitivity was set based on thresholding feedback. The rest of the settings were kept at default. Biofilm-related global properties were calculated and exported. We mainly focused on the 3D biovolume of our samples. Linear mixed-effects were used to model the biovolume where time, treatment, and their interaction were the fixed effects, and every sample was considered a random effect (Table 1 and Table 2). Following packages from R were used: nlme (Pinheiro, J. et al., R package version 3.1-153 (2021)), ggplot2 (Wickham, H., Wiley Interdiscip. Rev. Comput. Stat. 3, 180-185 (2011)).

[2] = tested on: soil microbiota biofilms (extracellular matrix proteins); assay: Live confocal imaging of biofilm matrix formation (SYPRO Ruby, 3D biovolume); assay type: cell-based
Procedure: as §1, §2, §3, §4

soil microbiota [3] = assay: Crystal violet biofilm biomass in push-pull dynamic system; assay type: cell-based; conditions: 5, 25 and 50 μmol MeJA spiked in soil chamber
Procedure: as §1
This system consists of an aerator/pump (to push air), 5 μm charcoal filter (to adsorb gaseous impurities), 0.22 μm filter (to trap microbial contamination), gas wash bottle (to moisturize the air), a source chamber (to host the source of volatiles), recipient chamber (to receive volatiles) and vacuum pump (to pull the air out) (FIG. 1D). […]
This method was used to get a proxy for biofilm biomass. […] The well was diluted with 180 ul of water and absorbance was checked at 595 nm on a spectrophotometer.

soil microbiome = assay: Biofilm induction by liquid MeJA concentration range; assay type: cell-based; conditions: pure liquid MeJA
Procedure: Biofilm induction of the soil microbiome was tested with several concentrations of pure MeJA at the nanomolar level. It was confirmed that a concentration range from […] of MeJA was effective to induce biofilms without being detrimental to plant growth.

[4] = tested on: soil microbiota biofilm community; assay: 16S rRNA gene amplicon quantitative microbiome profiling of VOC-exposed biofilm communities; conditions: 16 and 24 hours
Procedure: Using the push-pull airflow system, soil microbiota inoculum was exposed to four VOC treatments 1) soil VOCs; 2) WT Arabidopis rVOCs; 3) jmt Arabidopsis rVOCs; 4) jmt Arabidopsis rVOCs+MeJA. Biofilm and planktonic parts of the samples were collected from 28 wells after 16 and 24 hours and stored at −80° C. The collective sample from 28 wells was treated as a single experimental replicate. The whole experiment was repeated eight times.
Biofilm was scraped at specific timepoints and resuspended in PBS solution. DNA-RNA shield was added in 1:1 proportion and samples were stored at −80 C. Zymobiomics DNA miniprep kit was used to isolate DNA from the samples based on their protocol. 16S V4-V5 region was amplified using 515F-Y and 927R primers (Walters et al., mSystems 1 (2016)). 20 µL of reaction contained 2 μL of 10×DreamTaq buffer, 2 μL of 2 mM dNTP mix, 0.5 μL of each primer (10 µM), 0.5 μL of DreamTaq polymerase (5U/μL), 10 ng of template DNA, and molecular grade water to make up the volume. PCR conditions were as follows: initial denaturation at 95° C. for 3 minutes, 35 cycles of denaturation at 95° C. for 45 s, annealing at 50° C. for 45 s, extension at 68° C. for 90 s and final extension at 68° C. for 5 minutes. PCR products were purified with a Genejet PCR purification kit. Amplicon concentration was measured using Qubit DNA BR Kit and Qubit fluorometer. 16S amplicons were submitted for next-gen sequencing on Illumina MiSeq V3 Run (300 base pairs paired-end) at Singapore Centre for Life Science Engineering (SCELSE). Rarefaction analysis was performed to calculate appropriate depth for sequencing (FIG. 17B).
To enumerate the 16S rRNA gene copy numbers, the primer pair 515F and 806R (Walters, W. et al., MSystems 1, (2016)) were used in qPCR to amplify the 16S gene using Applied Biosystem real-time PCR system. The PCR assay mixture consists of 10 ul of PowerUp™ SYBR™ Green Master Mix, 1 ul of each primer from 10 µM stock, 1 ul of DNA of extracted DNA from the microbial population, and 7 ul of sterile nuclease-free water. The PCR amplification program encompassed an initial denaturation step at 95° C. for 3 min followed by 40 three-step cycles at 95° C. for 30 s, at 52° C. for 30 s and 72° C. for 30 s. Plasmid with the fragments of 16S rRNA gene part amplified with same primer pair was taken as standard for creating standard curve with known copy number for absolute quantification. Pearson correlation was calculated for the qPCR-derived copy number and the DNA yield from all the samples (FIG. 17D).
Raw and demultiplexed sequencing data was analysed as follows (also described in a flowchart in FIG. 17A): Primer and adapter sequences were removed using cutadapt (Martin, M., EMBnet.journal 17, 10-12 (2011)). […]

[5] = tested on: microbial isolates from MeJA-induced complex biofilms; assay: Biofilm assay of monoculture strains isolated from MeJA-induced biofilms; assay type: cell-based; conditions: 5 nM MeJA, crystal violet after 24 hours
Procedure: Complex microbiota biofilm exposed to volatile MeJA was scraped off and resuspended in PBS. Through serial dilution, this inoculum was plated on soil extract agar, minimal media agar, and LB agar. Colonies with unique morphology were picked and streaked onto a fresh LB plate to acquire single colonies. The isolated strains were identified using Sanger sequencing of the PCR product with primers 27F and […]. Their biofilm response to volatile MeJA was tested using “push-pull” setup (as described above for complex biofilms). Their response to soluble MeJA was tested by directly adding MeJA to the monoculture inoculum (final concentration of 5 nM). For both assays, biofilms were stained with crystal violet and quantified after 24 hours as explained in the biofilm staining protocol. The initial OD of the inoculum was 0.2.

[6] = 5 nM MeJA, time-treatment interaction

`CC/C=C\CC1=C(C)CCC1=O` [Cis-jasmone, cis-jasmone] was tested, and the “potential for biofilm induction among jasmonic acid analogues” value (Complex soil microbiome) was “highest potential for biofilm induction”.

In the case of `CCCCCC1C(=O)CCC1CC(=O)O` (stereo not shown) [DHJ, Dihydro jasmonic acid], the “potential for biofilm induction among jasmonic acid analogues” value (Complex soil microbiome) is reported as “highest potential for biofilm induction”.

In the case of `CC/C=C\CC1C(=O)CCC1CC(=O)OC` (stereo not shown) [MeJA, Methyl jasmonate], the “Linear mixed-effects model Value, Treatment1 nM (Biovolume)” value (soil microbiota [1]; 1 nM MeJA, SYTO9, imaging over 24 hours) is reported as −988.35, the “Linear mixed-effects model Value, Hours: Treatment1 nM (Biovolume)” value (soil microbiota [1]; 1 nM MeJA, time-treatment interaction) is reported as 106.209 and the “time from which biovolumes differed” value (soil microbiota [1]; 5 nM MeJA) is reported as ≥ 15 h. The “interaction of time and treatment in mixed-effects model” value (soil microbiota [1]; 5 nM MeJA vs non-treated biofilms) was “statistically significant”, the “biofilm growth trajectory (biovolume)” value (soil microbiota [1]; 5 nM MeJA, 0 to 24 hours, vs control) was “increasingly higher biofilm growth trajectory compared to the control” and the “Linear mixed-effects model Value, Treatment5 nM (Biovolume)” value (soil microbiota [1]; 5 nM MeJA, SYTO9, imaging over 24 hours) was −453.513. For the same molecule, the “Linear mixed-effects model Value, Hours: Treatment5 nM (Biovolume)” value (soil microbiota [1]; [6]) was 102.9409, the “Linear mixed-effects model Value, Treatment25 nM (Biovolume)” value (soil microbiota [1]; 25 nM MeJA, SYTO9, imaging over 24 hours) was −1245.62 and the “Linear mixed-effects model Value, Hours: Treatment25 nM (Biovolume)” value (soil microbiota [1]; 25 nM MeJA, time-treatment interaction) was 90.7811. For the same molecule, the “time from which MeJA influence appeared in the matrix” value ([2]; 5 nM MeJA) was ≥ 7 h, the “effect on biofilm matrix” value ([2]; 5 nM MeJA vs non-treated biofilm) was “promoted biofilm matrix compared to non-treated biofilm” and the “Linear mixed-effects model Value, Treatment5 (matrix Biovolume)” value ([2]; 5 nM MeJA, SYPRO Ruby) was 294.3537. For the same molecule, the “Linear mixed-effects model Value, Hours: Treatment5 (matrix Biovolume)” value [2, 6] was 11.25, the “potency in biofilm promotion, volatile form” value (soil microbiota [3]) was “higher at low concentrations (5 μmol) and gradually declined in a dose-dependent manner” and the “concentration effective to induce biofilms without being detrimental to plant growth” value (soil microbiome) was ≥ 500 nM. The “share of biofilm community with significant shift in abundance” value ([4]; WT rVOCs vs soil VOCs, MeJA: jmt+MeJA vs jmt rVOCs) was ~10%, the “number of promoted ASVs” value ([4]; vs respective control) was 21 ASVs and the “number of repressed ASVs” value ([4]; vs respective control) was 82 ASVs. For the same molecule, the “number of responding ASVs” value ([4]; vs respective control) was 103 ASVs and the “strains MeJA-responsive in biofilm formation, of nine tested” value [5] was “six”.
